Measurements published in publication PMC3423592 (ACS chemical biology, 2012).
One block for each compound: values may come before it.

Experiments:
4T1 cells = assay: 4T1 cell growth in 3D culture; format: cell-based; conditions: 3 μM GNF-2 added to 10 μM compound 4
NIH-3T3 = assay: cell growth inhibition assay; format: cell-based; conditions: read-out: GI50, NIH-3T3; 72 h, WST-1; non-cancer cell line
ErbB2 = ErbB2 (Homo sapiens, UniProt P04626); assay: KINOMEscan profiling, ErbB2; conditions: 10 μM
HT-29 = assay: cell growth inhibition assay; format: cell-based; conditions: read-out: GI50, HT-29; 72 h, WST-1
[1] = test system: diverse panel of 200 kinases; assay: KINOMEscan ATP-site competition binding, diverse kinase panel profiling; conditions: 10 μM
ErbB3 = ErbB3 (Homo sapiens, UniProt P21860); assay: KINOMEscan profiling, ErbB3; conditions: 10 μM
SK-BR-3 = assay: cell growth inhibition assay; format: cell-based; conditions: read-out: GI50, SK-BR-3; 72 h, WST-1
c-Src = c-Src (Gallus gallus, UniProt P00523); assay: continuous fluorimetric biochemical inhibition assay, c-Src; set-up: species or system chicken; conditions: read-out: Ki, c-Src; ATP = 100 μM, substrate peptide = 45 μM
MCF7 = assay: cell growth inhibition assay; format: cell-based; conditions: read-out: GI50, MCF7; 72 h, WST-1
MDA-MB-453 = assay: cell growth inhibition assay; format: cell-based; conditions: read-out: GI50, MDA-MB-453; 72 h, WST-1
[2] = test system: diverse panel of 200 kinases; conditions: in this panel; cited from earlier work

Chain of ErbB3 (P21860 20-1342): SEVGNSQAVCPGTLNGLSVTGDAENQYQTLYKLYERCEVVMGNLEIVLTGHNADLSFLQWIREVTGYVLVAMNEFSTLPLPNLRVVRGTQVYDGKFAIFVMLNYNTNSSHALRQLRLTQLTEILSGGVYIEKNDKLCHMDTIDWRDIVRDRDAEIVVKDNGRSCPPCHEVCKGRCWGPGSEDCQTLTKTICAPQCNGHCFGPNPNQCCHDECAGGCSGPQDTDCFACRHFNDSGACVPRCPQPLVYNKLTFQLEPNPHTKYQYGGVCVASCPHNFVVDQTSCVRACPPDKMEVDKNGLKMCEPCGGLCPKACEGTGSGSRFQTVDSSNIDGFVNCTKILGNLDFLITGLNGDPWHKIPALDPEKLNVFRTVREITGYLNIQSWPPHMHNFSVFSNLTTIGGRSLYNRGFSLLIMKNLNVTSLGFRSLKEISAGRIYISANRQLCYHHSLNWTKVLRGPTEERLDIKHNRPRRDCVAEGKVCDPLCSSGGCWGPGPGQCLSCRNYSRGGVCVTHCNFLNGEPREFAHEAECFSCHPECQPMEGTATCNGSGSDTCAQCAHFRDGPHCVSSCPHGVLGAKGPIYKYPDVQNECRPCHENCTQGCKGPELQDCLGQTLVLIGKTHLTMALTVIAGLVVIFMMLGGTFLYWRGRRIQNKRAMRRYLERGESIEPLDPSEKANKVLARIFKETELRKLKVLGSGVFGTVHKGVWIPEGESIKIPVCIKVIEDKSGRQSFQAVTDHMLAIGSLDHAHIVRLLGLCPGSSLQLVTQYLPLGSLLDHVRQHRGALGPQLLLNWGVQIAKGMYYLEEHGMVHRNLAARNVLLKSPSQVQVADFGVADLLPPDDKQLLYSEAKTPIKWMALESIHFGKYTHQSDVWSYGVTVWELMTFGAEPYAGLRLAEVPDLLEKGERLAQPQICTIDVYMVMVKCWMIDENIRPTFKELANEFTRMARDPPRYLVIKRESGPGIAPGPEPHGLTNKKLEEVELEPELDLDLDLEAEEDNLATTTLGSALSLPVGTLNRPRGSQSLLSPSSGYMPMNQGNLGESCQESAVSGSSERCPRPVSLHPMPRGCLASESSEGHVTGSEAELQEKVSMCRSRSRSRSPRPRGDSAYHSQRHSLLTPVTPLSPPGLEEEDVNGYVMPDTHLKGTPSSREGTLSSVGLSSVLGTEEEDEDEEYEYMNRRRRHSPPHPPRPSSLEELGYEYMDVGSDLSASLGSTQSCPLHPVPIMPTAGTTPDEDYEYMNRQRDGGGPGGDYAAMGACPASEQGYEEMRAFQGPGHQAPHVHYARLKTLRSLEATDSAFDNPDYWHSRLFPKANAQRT
Chain of ErbB2 (P04626 23-1255): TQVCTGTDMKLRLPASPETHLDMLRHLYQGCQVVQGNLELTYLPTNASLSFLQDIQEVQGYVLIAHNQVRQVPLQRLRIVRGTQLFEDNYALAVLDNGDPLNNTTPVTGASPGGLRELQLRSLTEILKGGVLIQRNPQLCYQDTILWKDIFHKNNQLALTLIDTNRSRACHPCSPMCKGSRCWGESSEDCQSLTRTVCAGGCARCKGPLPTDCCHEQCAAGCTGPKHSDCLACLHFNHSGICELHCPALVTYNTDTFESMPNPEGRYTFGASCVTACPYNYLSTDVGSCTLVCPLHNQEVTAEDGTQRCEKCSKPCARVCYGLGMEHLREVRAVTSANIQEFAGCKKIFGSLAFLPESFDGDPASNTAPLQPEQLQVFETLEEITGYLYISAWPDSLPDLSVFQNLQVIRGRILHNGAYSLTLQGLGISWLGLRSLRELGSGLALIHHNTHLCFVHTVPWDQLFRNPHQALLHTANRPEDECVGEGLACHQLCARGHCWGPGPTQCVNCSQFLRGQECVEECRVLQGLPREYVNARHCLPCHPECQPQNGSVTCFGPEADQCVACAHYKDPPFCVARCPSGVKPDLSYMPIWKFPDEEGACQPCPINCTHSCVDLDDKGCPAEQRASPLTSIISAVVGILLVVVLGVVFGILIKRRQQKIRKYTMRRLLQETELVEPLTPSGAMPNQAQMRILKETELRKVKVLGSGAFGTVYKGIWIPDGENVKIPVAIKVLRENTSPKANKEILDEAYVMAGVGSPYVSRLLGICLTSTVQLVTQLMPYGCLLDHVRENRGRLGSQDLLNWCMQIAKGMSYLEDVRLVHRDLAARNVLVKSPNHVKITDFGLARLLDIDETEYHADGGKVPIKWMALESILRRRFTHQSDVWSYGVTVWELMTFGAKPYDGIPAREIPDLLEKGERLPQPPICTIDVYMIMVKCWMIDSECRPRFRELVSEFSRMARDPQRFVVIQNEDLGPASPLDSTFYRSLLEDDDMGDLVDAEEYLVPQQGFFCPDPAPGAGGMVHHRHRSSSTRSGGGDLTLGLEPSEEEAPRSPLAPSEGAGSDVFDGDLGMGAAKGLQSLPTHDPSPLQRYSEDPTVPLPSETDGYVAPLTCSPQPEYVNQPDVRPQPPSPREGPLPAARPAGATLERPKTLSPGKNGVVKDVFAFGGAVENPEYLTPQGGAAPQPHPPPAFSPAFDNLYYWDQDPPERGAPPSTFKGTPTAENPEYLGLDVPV

SMILES: NC(=O)c1cccc(-c2cc(Nc3ccc(OC(F)(F)F)cc3)ncn2)c1 [GNF-2]
4T1 cell proliferation in 3D culture, effect of co-dosing (4T1 cells): mitigates effects of compound 4

inhibition of ErbB2 in profiling (ErbB2): significantly inhibits | GI50 (HT-29): 48 µM | number of kinases with >95% displacement from an immobilized ligand [1]: 56 | number of kinases with >99% displacement from an immobilized ligand [1]: 24 | inhibition of ErbB3 in profiling (ErbB3): significantly inhibits | GI50 (SK-BR-3): > 100 µM | Ki (c-Src): 0.033 µM | GI50 (MCF7): > 100 µM | GI50 (MDA-MB-453): 14 µM
SMILES: CC(C)(C)n1nc(-c2ccc(Cl)cc2)c2c(N)ncnc21 [PP2]
GI50 (NIH-3T3): 17 µM

SMILES: Cc1nc(Nc2ncc(C(=O)Nc3c(C)cccc3Cl)s2)cc(N2CCN(CCO)CC2)n1 [dasatinib]
S35 selectivity score [2]: 0.27
